One series has as its target T1, extracellular PLA2 (Agkistrodon piscivorus piscivorus, UniProt P51972).
T1 construct: Purified snake venom PLA2 (Agkistrodon piscivorus piscivorus) was a generous gift; tissue gift from dr; R. L. Biltonen; host or cells: snake venom of Agkistrodon piscivorus piscivorus
T1 sequence (P51972 1-123): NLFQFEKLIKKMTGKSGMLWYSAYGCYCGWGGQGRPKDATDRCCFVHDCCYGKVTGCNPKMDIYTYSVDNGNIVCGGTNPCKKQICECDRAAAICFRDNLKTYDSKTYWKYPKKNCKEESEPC
In words: Effect of cholesterol content of liposomes on extracellular PLA2 activity. Format: biochemical. The source says:
Short-chain phospholipids, such as didecanoyl phosphatidylcholine (DCPC), activate extracellular PLA2. The effect on calcein permeation across the target membranes induced by incorporation of a small amount of DCPC into the carrier PEG-liposomes is also shown in FIG. 12.a. […] In contrast we find that a small amount of cholesterol (≈3 mol %) activates extracellular PLA2. These significant findings are of particular interest since the blood circulation time of PEG-liposomes has been reported to be almost the same without cholesterol as with large amounts of cholesterol.

In the next series the test system is mice. Kind of series: In vivo hemolysis assay. The following applies: i.v., 50 mg/kg.
The test system of series [1] is human red blood cells (RBC). Kind of series: Hemolysis assay. The conditions noted are these: low concentrations, 37° C., 20 hours.
Method: Briefly, each sample was serially diluted with phosphate buffered saline (PBS), and 0.5 ml of each dilute suspension was mixed with 0.5 ml washed human red blood cells (RBC) [4% in PBS (v/v)]. Sample and standard were placed in a 37° C. incubator and agitated for 20 hours. Tubes were centrifuged at low speed (2000×G) for 10 minutes and 200 μl of the supernatant was quantitated by absorbance at 550 nm. 100 percent hemolysis was defined as the maximum amount of hemolysis obtained from the detergent Triton X-100.
1-O-octadecyl-2-O-methyl-sn-glycero-3-phosphocholine (ET-18-OCH3) in PBS was included in the assay as a reference.
Briefly, each sample was serially diluted with PBS, and 0.5 ml of each dilute suspension of 1-O-DPPC liposomes were mixed with 0.5 ml washed human red blood cells (RBC) [4% in PBS (v/v)]. For controls, 0.5 ml of the red blood cell suspension was mixed with either 0.5 ml buffer solution (negative hemolysis control) or 0.5 ml water (positive hemolysis control). Samples and standard were placed in a 37° C. incubator and agitated for 20 hours. Tubes were centrifuged at low speed (2000×G) for 10 minutes to form RBCs pellets. 200 μl of the supernatant was quantitated by absorbance at 550 nm using a Perkin-Elmer 320 scanning spectrophotometer. 100 percent hemolysis was defined as the maximum amount of hemolysis obtained from the detergent Triton X-100.
The nature of series [2]: Calcein release across target membrane on adding hydrolysis products in the absence of PLA2. The following applies: 25 μM target membranes, 39° C.
Method: Total release after 20 min of the fluorescent model drug calcein across the target membrane as a function of adding increasing amounts of lyso-palmitoyl phospholipid and palmitic acid, separately, and in a 1:1 mixture. The concentration of the target membranes is 25 μM in a HEPES buffer with pH=7.5 at a temperature of 39° C.
The experimental model system consists of a polymer-coated liposome carrier and a model target membrane. The carrier is a 100 nm unilamellar liposome made of dipalmitoyl phosphatidylcholine lipids (DPPC) with 2.5 mol % lipopolymer of the type dipalmitoyl phosphatidylethanolamine (DPPE)-PEG2000. The target membrane is another liposome made of 1,2-O-dioctadecyl-sn-glycero-phosphatidylcholine (D-O-SPC) which is a phospholipid where the acyl linkages of the stearoyl chains are ether bonds. In contrast to DPPC, D-O-SPC is inert towards PLA2-catalysed hydrolysis thereby mimicking the stability of an intact target cell membrane toward degradation by its own enzymes. […] The permeation of calcein across the D-O-SPC target membrane is subsequently monitored by the increase in fluorescence. […]

Method for mice: Groups of mice (n=5/group; weight 18-22 g) were treated i.v. with buffer (PBS), ET-18-OCH3 (50 mg/kg), and liposomes composed of 1-O-DPPC with 5 mol % 1-O-DPPE-PEG2000 (68.7 and 137.5 mg/kg). 30 min after injection, 100 μl blood was collected into heparinised tubes directly from decapitated, CO2-anesthetised mice. The blood was centrifuged at 500×G for 10 min, and plasma was removed and stored at −20° C. until analysed.
The degree of hemolysis was measured by absorbance at 550 nm using a Perkin-Elmer 320 scanning spectrophotometer. 25 μl plasma was mixed with 2,5 ml PBS or 2.5 ml 10% triton X-100. 100 percent hemolysis was defined as the maximum amount of hemolysis obtained from the plasma of PBS treated mice mixed with 10% Triton X-100 and 0 percent as plasma from PBS treated mice mixed with PBS.

Consider `CC(C)CCC[C@@H](C)[C@H]1CC[C@H]2[C@@H]3CC=C4C[C@@H](O)CC[C@]4(C)[C@H]3CC[C@]12C` [cholesterol], for which the “extracellular PLA2 activity” value on extracellular PLA2 (≈3 mol % cholesterol incorporated into liposomes) was “activates”; at extracellular PLA2 (≈20 mol % cholesterol incorporated into liposomes, data not shown), “deactivated”.

Consider `CCCCCCCCCCCCCCCCCCOC[C@H](COP(=O)([O-])OCC[N+](C)(C)C)OC` [ET-18-OCH3], for which, in the series on mice, the “Survival (30 min), number of surviving mice” value was 0/5 and the “mortality of treated mice” value is “died within the 30 minutes period”. Besides, in series [1], the “hemolysis (FIG. 6)” value is reported as “significant degree of hemolysis”.

As to `CCCCCCCCCCCCCCCC(=O)O` [fatty acid, palmitic acid], in series [2], the “rate of calcein release across the target membrane (FIG. 13)” value is reported as “increased rate”.

The values above are taken from patent publication US20040166151A1, “Lipid-based drug delivery systems containing phospholipase A2 degradable lipid derivatives and the therapeutic uses thereof” (priority 2000, published 2004).
